Key:
rat [1] = conditions: Sub-acute repeat dose toxicity, sprague dawley, Oral, Gavage/Intubation, dose end: 1 month, group: systemic
dog [2] = conditions: Chronic toxicity, beagle, Oral, Gavage/Intubation, dose end: 6 month, group: systemic
rat [3] = conditions: Prenatal developmental toxicity study, sprague dawley, Oral, Gavage/Intubation, dose end: 17 GD
rabbit [4] = conditions: Prenatal developmental toxicity study; new zealand white; Oral; Gavage/Intubation; dose end: 19 GD; group: maternal; reproductive / reproductive performance / postimplantation loss / postimplantation loss + reproductive / reproductive performance / …
rat [5] = conditions: Prenatal developmental toxicity study, sprague dawley, Oral, Gavage/Intubation, dose end: 17 GD; remark: listed apart in the source
rat [6] = conditions: Fertility (Segment I), sprague dawley, Oral, Gavage/Intubation, dose end: 7 GD
rat [7] = conditions: Chronic toxicity, sprague dawley, Oral, Gavage/Intubation, dose end: 6 month, group: systemic
dog [8] = conditions: Sub-acute repeat dose toxicity, beagle, Oral, Gavage/Intubation, dose end: 1 month, group: systemic
rat [9] = conditions: Fertility (Segment I), sprague dawley, Oral, Gavage/Intubation, dose end: 7 GD; remark: listed apart in the source
rabbit [10] = conditions: Prenatal developmental toxicity study; new zealand white; Oral; Gavage/Intubation; dose end: 19 GD; group: maternal; reproductive / reproductive performance / resorptions / resorptions + systemic / in life observation / body weight / body weight gain + …
rat [11] = conditions: Prenatal developmental toxicity study, sprague dawley, Oral, Gavage/Intubation, dose end: 17 GD, group: maternal
[12] = systemic / clinical chemistry / alanine aminotransferase (alt/sgpt) / alanine aminotransferase (alt/sgpt) + systemic / clinical chemistry / …
[13] = systemic / in life observation / body weight / body weight + systemic / organ weight / thymus / absolute + systemic / organ weight / thymus…
[14] = group: developmental, systemic / in life observation / body weight / fetal weight
[15] = group: maternal, reproductive / reproductive performance / aborted / aborted + reproductive / reproductive performance / gestation index / gestation index + …
[16] = group: maternal, reproductive / reproductive performance / aborted / aborted + reproductive / reproductive performance / postimplantation loss / …
[17] = group: maternal, reproductive / reproductive performance / estrous cycle / corpora lutea + reproductive / reproductive performance / implantations / …
[18] = group: parental, systemic / in life observation / body weight / body weight gain + systemic / in life observation / food consumption / food consumption
[19] = systemic / pathology gross / uterus / dilatation
[20] = systemic / pathology microscopic / parathyroid gland / adenoma + systemic / clinical chemistry / alanine aminotransferase (alt/sgpt) / …
[21] = systemic / hematology / erythrocyte (rbc) count differential / erythrocyte (rbc) + systemic / hematology / hematocrit (hct) / hematocrit (…
[22] = group: maternal, reproductive / reproductive performance / estrous cycle / abnormal + reproductive / reproductive performance / estrous cycle / corpora lutea…
[23] = group: parental, systemic / in life observation / body weight / body weight + systemic / in life observation / body weight / body weight gain + systemic / in…
[24] = systemic / in life observation / body weight / body weight gain + systemic / in life observation / food consumption / food consumption
[25] = systemic / in life observation / body weight / body weight gain + systemic / in life observation / food consumption / food consumption + …

`CN(C)C(=O)NC1(c2ccccc2)CCN(CCC[C@]2(c3ccc(Cl)c(Cl)c3)CCCN(C(=O)c3ccccc3)C2)CC1` gave an LOAEL (rat [1]; [12]) greater than 250 mg/kg/day, an NEL (rat [1]; [12]) of 25 mg/kg/day and an NOAEL (rat [1]; [12]) of no less than 250 mg/kg/day. It also gave an LEL (rat [1]; systemic / pathology gross / mammary gland / [other]) of 75 mg/kg/day, an LOAEL (dog [2]; [12]) greater than 90 mg/kg/day and an NOAEL (dog [2]; [12]) of no less than 90 mg/kg/day. For the same compound, the LEL (dog [2]; [13]) was 10 mg/kg/day, the NEL (dog [2]; [13]) was less than 10 mg/kg/day and the LEL (rat [3]; [14]) was 200 mg/kg/day. For the same compound, the LOAEL (rat [3]; [14]) was greater than 200 mg/kg/day, the NEL (rat [3]; [14]) was 75 mg/kg/day and the NOAEL (rat [3]; [14]) was no less than 200 mg/kg/day. For the same compound, the LEL (rat [3]; [15]) was 200 mg/kg/day, the LOAEL (rat [3]; [15]) was 200 mg/kg/day and the NEL (rat [3]; [15]) was 75 mg/kg/day. The NOAEL (rat [3]; [15]) was 75 mg/kg/day, the LEL (rabbit [4]) was 50 mg/kg/day and the LOAEL (rabbit [4]) was greater than 100 mg/kg/day. For the same compound, the NEL (rabbit [4]) was less than 50 mg/kg/day, the NOAEL (rabbit [4]) was no less than 100 mg/kg/day and the LEL (rat [5]; [14]) was 250 mg/kg/day. It also gave an LOAEL (rat [5]; [14]) greater than 250 mg/kg/day, an NEL (rat [5]; [14]) of less than 250 mg/kg/day and an NOAEL (rat [5]; [14]) of no less than 250 mg/kg/day. For the same compound, the LEL (rat [5]; [16]) was 250 mg/kg/day, the LOAEL (rat [5]; [16]) was greater than 250 mg/kg/day and the NEL (rat [5]; [16]) was less than 250 mg/kg/day. For the same compound, the NOAEL (rat [5]; [16]) was no less than 250 mg/kg/day, the LEL (rat [6]; [17]) was 150 mg/kg/day and the LOAEL (rat [6]; [17]) was greater than 150 mg/kg/day. For the same compound, the NEL (rat [6]; [17]) was 75 mg/kg/day, the NOAEL (rat [6]; [17]) was no less than 150 mg/kg/day and the LEL (rat [6]; [18]) was 150 mg/kg/day. The LOAEL (rat [6]; [18]) was greater than 150 mg/kg/day, the NEL (rat [6]; [18]) was 75 mg/kg/day and the NOAEL (rat [6]; [18]) was no less than 150 mg/kg/day. The LEL (rat [7]; [19]) was 25 mg/kg/day, the NEL (rat [7]; [19]) was less than 25 mg/kg/day and the LOAEL (rat [7]; [20]) was greater than 250 mg/kg/day. The NOAEL (rat [7]; [20]) was no less than 250 mg/kg/day, the LOAEL (dog [8]; [12]) was greater than 360 mg/kg/day and the NOAEL (dog [8]; [12]) was no less than 360 mg/kg/day. For the same compound, the LEL (dog [8]; [21]) was 40 mg/kg/day, the NEL (dog [8]; [21]) was less than 40 mg/kg/day and the LOAEL (rat [9]; [22]) was greater than 250 mg/kg/day. It also gave an NEL (rat [9]; [22]) of 75 mg/kg/day, an NOAEL (rat [9]; [22]) of no less than 250 mg/kg/day and an LEL (rat [9]; [17]) of 150 mg/kg/day. It also gave an LOAEL (rat [9]; [23]) greater than 250 mg/kg/day, an NOAEL (rat [9]; [23]) of no less than 250 mg/kg/day and an LEL (rat [9]; [18]) of 75 mg/kg/day. The NEL (rat [9]; [18]) was less than 75 mg/kg/day, the LEL (rabbit [10]) was 75 mg/kg/day and the LOAEL (rabbit [10]) was greater than 75 mg/kg/day. For the same compound, the NEL (rabbit [10]) was 25 mg/kg/day, the NOAEL (rabbit [10]) was no less than 75 mg/kg/day and the LEL (rat [11]; [24]) was 100 mg/kg/day. For the same compound, the LOAEL (rat [11]; [24]) was 100 mg/kg/day, the NEL (rat [11]; [25]) was 50 mg/kg/day and the NOAEL (rat [11]; [25]) was 50 mg/kg/day.

Source: EPA's ToxRefDB 2
